Reference: patent US7767804B2, “Compositions and methods for using a solid support to purify RNA” (Qiagen North American Holdings, Inc., priority 2001, dated 2010)
Where two headings read alike, the source gives them in different places.

Key:
[1] = cited from earlier work; for Type of Heat: heat of aqueous solution; for Heat of Aqueous Solution: tabulated, Handbook of Chemistry and Physics
[2] = Excerpt: Much time and effort was spent screening detergents that would adequately lyse cells and also stay soluble in the Lysing/Binding Solution of the present invention. The Tween, Triton, Tergitol, Nonidet and Igepal family of detergents were examined along with a number of non-ionic detergent-like compounds.
[3] = approximate maximum solubility in Wash I Solution containing 55% ethanol
[4] = data extrapolated to 20° C. from tabulated data in Handbook of Chemistry and Physics, cited from earlier work
[5] = pH 8.8
[6] = tested on: RNase activity; experiment: RNase activity with LiCl Wash I Solution, detected as degraded RNA in the final eluted RNA product; format: biochemical
Excerpt: For cesium, ammonium, sodium and potassium chloride salts, the maximum solubilities obtained in 55% ethanol were about 2.5 M, 2 M, […] M, and <1 M, respectively. […] It is likely that RNase activity would be detected using the LiCl and LiBr salts as well, at least some proportion of the time, and depending upon the tissue from which the RNA is purified. […] This is probably because solubility definitions are somewhat vague for predicted alcohol solubilities, and the Wash I Solution used in this experiment contained a mixture of water and ethanol, rather than a pure alcohol solution.

| Compound | Type of Heat [1] | Heat of Aqueous Solution [1] | further results |
| --- | --- | --- | --- |
| [Cl-].[Cs+] [CsCl, cesium chloride] | endothermic | +4.25 kcal/mole |  |
| CCOCCOCCO [DGME, Diethyleneglycolmonoethylether] |  |  | Stability/solubility of detergent in the Lysing/Binding Solution over time [2]: stays in solution |
| [Cl-].[K+] [KCl, potassium chloride] | endothermic | +4.12 kcal/mole | Measured Solubility in Wash I [3]: < 1000 mM; Measured Solubility in Wash I ([3]; listed as potassium chloride): < 1000 mM; Reported Solubility in Water [4]: 3000 mM; Reported Solubility in Water ([4]; listed as potassium chloride): approximately 3 M |
| [Br-].[Li+] [LiBr, lithium bromide] | exothermic | -11.67 kcal/mol |  |
| [Cl-].[Li+] [LiCl, lithium chloride] | exothermic | -8.85 kcal/mol | Measured Solubility in Lysis/Binding [5]: at least 4M; RNase activity detected as degraded RNA in the final eluted RNA product ([6]; 2.5 M LiCl Wash I Solution): RNase activity was detected at least half of the time; LiCl needed in the Wash I Solution in order to eliminate the RNase activity ([6]; Wash I Solution): at least 5 M |
| Cl.N [NH4Cl, ammonium chloride] | endothermic | +3.53 kcal/mole |  |
| [Cl-].[Na+] [NaCl, sodium chloride] | endothermic | +0.93 kcal/mole |  |
| CCCCCCCCCCCC(=O)OCCOCCOCCOCCOCCOCCOCCOCCOCCOCCOCCOCCOCCOCCOCCOCCOCCOCCOCCOCCOCC(OCCOCCOCCOCCOCCOCCOCCOCCOCCOCCOCCOCCOCCOCCOCCOCCOCCOCCOCCOCCO)C1OCC(OCCOCCOCCOCCOCCOCCOCCOCCOCCOCCOCCOCCOCCOCCOCCOCCOCCOCCOCCOCCO)C1OCCOCCOCCOCCOCCOCCOCCOCCOCCOCCOCCOCCOCCOCCOCCOCCOCCOCCOCCOCCO (stereo not drawn) [Tween-20, polyoxylene sorbitan monolaurate] |  |  | Stability/solubility of detergent in the Lysing/Binding Solution over time [2]: saponified or degraded over time and fell out of solution |
